According to patent publication US20230045685A1, “COPPER CLUSTERS, COMPOSITION, AND METHOD FOR TREATMENT OF LIVER CIRRHOSIS” (Wuhan Vast Conduct Science Foundation CO., LTD., priority 2020, published 2023):

Legend:
[1] = tested on: CCl4-induced liver cirrhosis in a mouse model; assay: HE staining pathological examination of liver tissue in CCl4-induced liver cirrhosis model mice; type: in vivo, C57BL/6N mice; conditions: sorafenib 25 mg/kg intragastrically, 20 days, vs model control group
Source text: (§1) 70 SPF male C57BL/6N mice, 6-8 weeks old and 16-20 g body weight, were purchased from Beijing Huafukang Experimental Animal Technology Co., Ltd. (production license number: SOCK (Jing) 2019-0008). According to body weight, they were randomly divided into 7 groups (n=10): blank control group, model group, positive control group, Cu-1 low dose group, Cu-1 high dose group, Cu-2 low dose group, Cu-2 high dose group.
(§2) Except for the blank control group, liver cirrhosis model of mice in other groups was prepared by the treatment of carbon tetrachloride (CCl4)-induction method. The modeling protocoal was as follows: (1) Each mouse was intraperitoneally injected with 10% CCl4 (diluted with olive oil) at 7 μL/g body weight, twice a week for a total of 8 weeks; mice of the blank control group were injected intraperitoneally with the same amount of olive oil solvent. (2) from the 6th week, two mice were selected and killed 48 hours after the last injection every week. The appearance of the liver was observed. After the appearance was in line with the characteristics of cirrhosis (the 8th week), the liver tissue was fixed with formalin. HE staining and Masson staining were used to evaluate the model of cirrhosis. […]

[2] = tested on: CCl4-induced liver cirrhosis in a mouse model; assay: Serum biochemical testing (ALT, AST, TBil, MAO, ALB) in CCl4-induced liver cirrhosis model mice; type: in vivo, C57BL/6N mice; conditions: sorafenib 25 mg/kg intragastrically, once a day for 20 days
Source text: as §1, §2

**Q.** Which results are given for `CNC(=O)c1cc(Oc2ccc(NC(=O)Nc3ccc(Cl)c(C(F)(F)F)c3)cc2)ccn1` [Sorafenib]?
**A.** HE staining: liver pathology [1]: significant reduction of liver damages; serum ALT activity ([2]; model group 188.5±4.9, P<0.01): 42.8±5.4 U/L; serum AST activity ([2]; model group 192.0±11.3, P<0.05): 165.5±11.6 U/L
